Measured values from patent US20260283959A1, “APPLICATION OF […] POWDER INHALER IN PREPARATION OF MEDICAMENT FOR TREATING ACUTE LUNG INJURY” (Anhui University of Chinese Medicine, priority 2025, published 2026).
Converted amounts (≈) assume the structure as drawn. Like-named read-outs stand apart in the source and are kept apart here.

Experiments:
[1] = Hygroscopicity by dynamic vapor sorption (DVS); type: physicochemical
Procedure: The hygroscopicity of synephrine API and DPI was analyzed using a dynamic vapor sorption (DVS) analyzer. The experimental temperature was set to room temperature (25° C.), the carrier gas was nitrogen, and the total gas flow rate was 200 mL/min. Samples were weighed and placed on the balance tray of the DVS analyzer. The relative humidity (RH) change program was set as required, and the humidity equilibrium time was also set.

[2] = system: LPS-induced ALI model in rats; assay: Lung wet-to-dry weight ratio in LPS-induced rat ALI model; type: in vivo; conditions: SYN 9 mg/kg gavage; SYN-DPI 4.5-18 mg/kg inhalation; 6 h after administration
Procedure: (§1) Male SD rats were acclimatized for one week, and an ALI model in rats was established using tracheal instillation of LPS. The specific modeling steps were as follows: the rats were first anesthetized with isoflurane, then the rats were fixed in a supine position to facilitate intratracheal administration to the lungs. LPS (8 mg/kg) was nebulized into the alveoli using a microsprayer. The microsprayer was then removed, the animal was placed in a vertical position, and gently rotated for 30 seconds to ensure even distribution of LPS throughout the lungs.
(§2) Referring to relevant literature on synephrine, the maximum human dose of synephrine is 100 mg. Based on the clinically equivalent dose, the dose administered to the rats via gavage was 9 mg/kg, and the low-dose inhalation group was 4.5 mg/kg.
After instillation of the left lung of the rats, the left and right lungs were collected, washed with physiological saline, and dried. The lower lobe of the left lung was used to determine the wet-to-dry weight ratio of the rat lung tissue. […]
The lower lobe of the left lung of the rat was collected, surface blood was removed, surface moisture was wiped off, and the lobe was weighed. The wet weight was recorded. The lobe was then dried in a 60° C. oven for 24 hours, and the dry weight was recorded. The degree of pulmonary edema was evaluated by calculating the lung wet/dry weight ratio. […]

[3] = Solubility of synephrine API in different solvents by HPLC; type: physicochemical
Procedure: Column: Agilent C18 (250 mm×4.6 mm, 5 μm) column; mobile phase: 0.1% formic acid (A)-acetonitrile (B); detection wavelength: 273 nm; flow rate: 1 mL/min; column temperature: 30° C.; injection volume: 10 μL; isocratic elution: 1 min to 10 min; 97% A.
Excess synephrine API was weighed and placed in an EP tube. Then, 1.00 mL of each of the following solutions was added: water, anhydrous ethanol, isopropanol, ethyl acetate, n-butanol, n-octanol, acetonitrile, and n-hexane. The mixture was sonicated (300 W, 40 kHz) until no further dissolution occurred. The tube was then centrifuged at 6000 r min^−1 for 15 min, filtered through a 0.22 μm microporous membrane, and the filtrate was diluted with methanol and analyzed under liquid chromatography conditions. The solubility of synephrine in different solvents was calculated.

[4] = system: LPS-induced RAW264.7 cells; assay: LPS-induced RAW264.7 cellular inflammation model, ELISA of inflammatory mediators; type: cell-based; conditions: Mus musculus, LPS-stimulated RAW264.7
Procedure: RAW264.7 cells in logarithmic growth phase were seeded at 100 μL per well in a 96-well plate and cultured at 37° C. and 5% CO2 for 24 hours. The supernatant was aspirated and discarded. 100 μL of medium containing synephrine at an appropriate concentration was added to each well for pretreatment for 1 h, followed by the addition of LPS-containing medium. The cells were then co-incubated with the test substance for 24 hours.
Based on the CCK-8 assay results, RAW264.7 cells in logarithmic growth phase were seeded in 96-well plates and divided into the control group, LPS group, LPS+SYN group, and LPS+SYN-DPI group. A cellular inflammation model was established. After culturing for 24 h, the supernatant from each well was collected and centrifuged at 3500 rpm for 10 min. The supernatant was collected and the subsequent procedures were strictly performed according to the ELISA kit instructions. The absorbance was measured at 450 nm using a microplate reader, and the contents of interleukin (IL)-1B, IL-6, tumor necrosis factor (TNF)-α, and nitric oxide (NO) were calculated.

[5] = Pharmacokinetic study in rats, plasma synephrine by LC-MS/MS; type: in vivo, rat; conditions: for Cmax: rat plasma
Procedure: SPF-grade male SD rats, weighing 180-220 g, were housed under identical experimental conditions: temperature (22±1)° C., relative humidity (55±5) %, and a 12-hour light/dark cycle. They had free access to food and water and underwent a one-week acclimatization period before the experiment.
Column: Hypersil GOLD C8 (100 mm×2.1 mm; 3 μm); Mobile phase: Phase A: 0.1% formic acid aqueous solution, Phase B: acetonitrile; Flow rate: 0.3 mL/min; Column temperature: 40° C.; Injection volume: 2 μL; Gradient elution program: 0-1 min, 5% B; 1-4 min, 5%-90% B; 4-5 min, 90%-5% B.
Mass spectrometry was performed in electrospray ionization (ESI) positive ion scanning mode, using multiple reaction monitoring (MRM) detection mode. The collision gas was high-purity nitrogen; capillary voltage: 3.5 kV; nebulizer pressure: 45 psi; desiccator temperature: 300° C.; drying gas flow rate: 5 L/min (N2); sheath gas temperature: 250° C.; sheath gas flow rate: 11 L/min (N2).
Experimental animals were randomly divided into three groups: (1) tail vein injection group, (2) pulmonary inhalation group, and (3) gavage group, with 5 animals in each group. Animals were fasted for 12 h before administration but had free access to water.
Rats were fasted for 12 hours before the experiment but were allowed free access to water. The rats were weighed to calculate the dosage and numbered. After administration, 0.2 mL of blood was collected from the orbital vein at time points of 2 min, 5 min, 10 min, 15 min, 30 min, 1 h, 2 h, 3 h, 4 h, and 6 h. The blood samples were placed in an EP tube containing heparin sodium and were centrifuged at 3500 rpm for 15 min. The supernatant plasma was separated and stored at −80° C. freezer.
190 μL of a rat plasma sample was accurately pipetted into an EP tube. Then, 10 μL of an internal standard solution was added, and the sample was vortexed for 60 s. Next, 400 μL of acetonitrile was added, and the sample was vortexed for 60 s to precipitate proteins. The sample was then centrifuged at 10000 rpm for 15 mins, and the supernatant was passed through a 0.22 μm microporous filter membrane. Finally, the filtered sample was placed in a glass insert for LC-MS/MS analysis.

[6] = In vitro pulmonary deposition, next-generation pharmaceutical impactor (NGI); type: physicochemical; conditions: 75 L/min, 3.2 s, 10 mg capsules
From the text: The in vitro pulmonary deposition of synephrine DPI samples was investigated using the next-generation pharmaceutical impactor (NGI). The various components of the instrument were connected sequentially, including the NGI device, an adapter, an artificial throat, a pre-separator, and a collection tray. After installation, the airtightness and uniformity of the device were checked. The gas flow rate was 75 L/min. At this gas flow rate, the cutoff values Da of each stage of the collection tray were as follows: S1=7.145 μm, S2=3.971 μm, S3=2.522 μm, S4=1.495 μm, S5=0.835 μm, S6=0.481 μm, S7=0.293 μm, and the micro-orifice collector (MOC)=0.104 μm.
The specific method was as follows: 10 mg synephrine micropowder and API were added to No. 3 hydroxypropyl methylcellulose capsules, respectively, and then loaded into a single-capsule inhalation device. After connecting to an NGI, the measurement was performed. Five capsules were inhaled each time. The inhalation flow rate was 75 L/min, and the inhalation duration was 3.2 s. Drug powder deposited at each stage of the NGI was collected using ultrapure water. The synephrine content was determined under UV conditions, and the FPF and respirable fraction (RF) were calculated.

[7] = system: LPS-induced ALI model in rats; assay: HE and Masson staining of lung tissue in LPS-induced rat ALI model; type: in vivo
Procedure: as §1, §2
Lung tissue fixed in 4% paraformaldehyde was dehydrated, routinely embedded in paraffin, and prepared into 5 μm sections. After dewaxing, the sections were routinely stained with HE, dehydrated, mounted, and observed under a microscope to examine the structure and morphological characteristics of the rat lung tissue in each group.
The sections were routinely dewaxed to water. Hydrophobic zones were drawn, and Bouin's solution was added dropwise. The sections were then covered and incubated at 37° C. After incubation, they were rinsed with running water until the yellow color disappeared. […]

[8] = system: LPS-induced ALI model in rats; assay: Serum inflammatory cytokine levels (ELISA) in LPS-induced rat ALI model; type: in vivo; conditions: P<0.0001; 6 h after administration
Procedure: as §1, §2
Six hours after drug administration, rats were anesthetized by intraperitoneal injection of sodium pentobarbital. […]
Rat serum was collected, and the levels of TNF-α, IL-6, IL-8, IL-1β, and IL-1α were measured separately according to the rat ELISA kit instructions. The OD value was measured at 450 nm using a microplate reader. A standard curve was plotted with the concentrations of TNF-α, IL-8, IL-6, IL-1β, and IL-1α standards on the x-axis and the absorbance values on the y-axis. The concentrations of TNF-α, IL-6, IL-8, IL-1β, and IL-1α in serum were calculated based on the standard curve.

[9] = system: LPS-induced ALI model in rats; assay: Total protein content in BALF (BCA assay) of ALI rats; type: in vivo, rat; conditions: 6 h after administration
Procedure: as §1, §2
After blood collection, the rats were placed in a supine position on the operating table until their hearts stopped beating. […]
This study used the bicinchoninic acid (BCA) assay to determine the total protein content in BALF. The tissue weight was accurately measured, and physiological saline was added according to the weight-to-volume ratio. […] The test solution was added sequentially according to the protein quantification kit instructions. The absorbance was measured at 562 nm using a microplate reader, and the protein concentration in BALF was calculated.

CNCC(O)c1ccc(O)cc1 (stereo not drawn) [SYN, Synephrine]
hygroscopicity class (Chinese Pharmacopoeia 2020, 9103 guidelines) ([1]; 90% RH): no or almost no hygroscopicity (hygroscopic weight gain less than 0.2%) | maximum moisture adsorption / moisture absorption weight gain ([1]; 90% RH, 25° C.): 0.12% | moisture absorption weight gain percentage ([1]; normal storage conditions (60% RH), 25° C.): less than 0.2% | wet-to-dry weight ratio of rat lungs compared to the model group [2]: significant reduction | solubility ([3]; organic solvent or mixture, solvent: Acetonitrile): 10620 ± 60 µg/mL (≈ 63.5 mM) | solubility ([3]; organic solvent or mixture, solvent: Anhydrous Ethanol): 17200 ± 270 µg/mL (≈ 103 mM) | solubility ([3]; organic solvent or mixture, solvent: Ethyl Acetate): 640 ± 10 µg/mL (≈ 3.83 mM) | solubility ([3]; organic solvent or mixture, solvent: Isopropanol): 7060 ± 120 µg/mL (≈ 42.2 mM) | solubility ([3]; organic solvent or mixture, solvent: n-Butanol): 8760 ± 20 µg/mL (≈ 52.4 mM) | solubility ([3]; organic solvent or mixture, solvent: n-Octanol): 3660 ± 10 µg/mL (≈ 21.9 mM) | solubility ([3]; solvent: Water): 13440 ± 20 µg/mL (≈ 80.4 mM) | Solubility (in words) ([3]; solvent: n-hexane): almost insoluble | inhibition at 200 µM ([4]; 200 μM, read-out: inhibition of NO production): 16.1% | inhibition at 400 µM ([4]; 400 μM, read-out: inhibition rate of IL-6 production): 23.3% | Cmax ([5]; iv, injection group (tail vein)): 1030 ng/mL | AUC(0-inf) ([5]; plasma, iv, rat, injection group (tail vein)): 1540 ng·h/mL | half-life ([5]; plasma, iv, rat, injection group (tail vein), read-out: half-life (t½)): 5.33 h | bioavailability ([5]; plasma, po, rat, gavage group, read-out: AUC(0-∞) as % of the injection group): 64.5% | AUC(0-t) ([5]; plasma, po, rat, gavage group, read-out: area-under-the-curve (AUC)(0-t)): 876 ng·h/mL | half-life ([5]; plasma, po, rat, gavage group, read-out: half-life t½): 2.29 h | Cmax ([5]; po, gavage group): 302 ng/mL | Cmax as % of the injection group ([5]; rat, gavage group): 29.24% | half-life (t½) as % of the injection group ([5]; rat, gavage group): 43.01% | effective in vitro lung deposition rate [6]: 2.25% | emptying rate [6]: 90.98% | fine particle fraction (FPF) [6]: 2.69% | respirable fraction (RF) [6]: 41.26% | pathological changes, SYN group compared with low-dose SYN-DPI group ([7]; SYN 9 mg/kg gavage vs SYN-DPI 4.5 mg/kg inhalation): no significant difference in pathological changes | expression levels of serum inflammatory cytokines (IL-1α, IL-1β, IL-6, IL-8, TNF-α) compared to the model group [8]: significantly decreased

C[C@@H]1C[C@H]2[C@@H]3CCC4=CC(=O)C=C[C@]4(C)[C@@]3(F)[C@@H](O)C[C@]2(C)[C@@]1(O)C(=O)CO [Dex]
total protein content in BALF compared with the LPS group [9]: significantly improve alveolar interstitial space | pathological damage of rat lung tissue (HE, Masson) ([7]; Dex group, 3 mg/kg gavage): significantly alleviated | expression levels of serum inflammatory cytokines (IL-1α, IL-1β, IL-6, IL-8, TNF-α) compared to the model group [8]: significantly decreased
